Results on two compounds are retold here after US20190072567A1, “METHOD OF DETECTING LC3B EXPRESSION IN EXOSOMES EXTRACTED FROM LIQUID BIOLOGICAL SAMPLES” (University of Cincinnati, priority 2017, published 2019).

For one assay, the system named is HEK293 cells. Description: Annexin V cell survival assay by flow cytometry. The format is cell-based, human. On the procedure: HEK293 cells were plated in 10 cm culture dishes in 10% FBS DMEM media. Media was replaced with dFBS DMEM once 40% confluence was reached and cells were incubated for 24 h. Cells were treated with the following concentrations of agents: Gem 20 μM concentration (Gem^20), CQ 10 μM (CQ^10) and 20 μM (CQ^20) concentrations, and in combinations (wherein Gem was administered at 20 μM but CQ concentration varied) as follows: Gem+CQ^10 and Gem+CQ^20. Cells were treated in fresh dFBS DMEM media for 16 h. Cells and media were collected, centrifuged, and washed and stained with propedium iodide (PI) and annexin V prior to running samples. Cell cycle analysis was performed using fresh cells on a FACS Calibur (Becton Dickinson) after incubation with 25 μg/ml PI. Cell cycle phases were analyzed with the CellQuest-Pro software program (Becton Dickinson).
The effect of autophagy inhibitor CQ was examined via a cell survival assay by flow cytometry using annexin V (FIG. 8).
HEK293 cells were plated in 6 well cell culture plates and treated with control (A), Gem 20 μM (B), CQ 10 μM (C), CQ 20 μM (D), Gem 20 μM+CQ 10 μM (E), and Gem 20 μM+CQ 20 μM (F). Cells treated with CQ at both concentrations had increased expression of phosphatidyl serine compared to control from 10% up to almost 17% (C,E). Cells treated with Gem 20 μM alone had only 8.2% apoptotic cells (B).
(In flow cytometry, cells or beads pass a laser one at a time.)

Assay [1] relates to LC3B. Description: Western blot of LC3B in U251 cells and in exosomes extracted from cell media. The format is cell-based, human. The settings on record: for LC3B-II band in cells: cells treated with chloroquine, whole cell / total cell extracts (U251); for LC3B-II band in exosomes: exosomes isolated from U251 cells treated with CQ. The source says: Three cell lines were used in the studies disclosed herein. U251, a human glioblastoma cell line, MiaPaCa2, a human pancreatic carcinoma cell line, and HEK293, a human embryonic kidney cell line. A variety of cell lines were selected in order to compare results for cells having different baseline autophagic activities. Cells were maintained in DMEM culture media supplemented with 10% fetal bovine serum (FBS), antimycotic, and L-glutamine. At 40% confluence, culture dishes were washed twice with PBS and media was replaced with 10% exosome depleted FBS (dFBS). DMEM media (50 ml EXO-FBS™ Exosome Depleted FBS media, System Biosciences) and incubated to settle for 24 h. After 24 h, culture dishes were washed with PBS and new dFBS DMEM media was added and treated with chloroquine diphosphate salt (Sigma Aldrich, UK) and incubated. Incubation period was 48 h for western blot on HEK293 plates and 72 h for western blot of U251 cells. Incubation varied according to plate confluency, CQ concentration, and expected number of exosomes secreted by the cell line. Media was collected and used for exosome extraction directly after incubation period concluded. Exosome Extraction from Patient Plasma
Exosomes were extracted from freshly collected cell culture media using exosome precipitation reagent (Total Exosome Isolation from cell culture media, Invitrogen by Life Technologies) following manufacturer instructions. Briefly, exosome extraction reagent is added to cell culture media and the solution is incubated overnight at 2-8° C. Precipitated exosomes are recovered by standard centrifugation at 10,000×g for 60 min. Extracted exosomes were suspended in phosphate buffered saline (PBS) and stored at −80° C.
Detection of LC3B expression in isolated exosomes was completed using western blotting standard protocols. Briefly, gel electrophoresis was used to separate proteins by size and/or structure. Proteins were then transferred to a membrane (polyvinylidene fluoride or nitrocellulose are suitable for use) and blocked with blocking buffer to prevent non-specific antibody binding. Membranes were incubated with anti-LC3B antibody to target LC3B-I and LC3B-II. LI-COR detection (LI-COR Biotechnology, USA) was employed to visualize target proteins. LC3B protein detection was achieved by anti-LC3B rabbit monoclonal antibody (Cell Signaling Inc., USA). CD9 was used as a loading control and was detected using rabbit monoclonal antibody (Cell Signaling Inc., USA). All western blots were run on 5-15% gradient gels after estimating and unifying sample protein content by bicinchoninic acid assay (BCA).
Quantification of LC3B-I and LC3B-II by western blot was compared in U251 cells, exosomes extracted from cell media, patient peripheral blood, and HEK293 cells (FIG. 1). U251 and HEK293 cells were treated with CQ to induce exosome secretion. Both cells and exosomes extracted from cellular media were analyzed. A peripheral blood sample was obtained from a patient undergoing Gem/Carb treatment, with a −7 daily pretreatment with CQ. Exosomes were isolated from the patient's plasma sample.
Background: In western blotting, separated proteins are transferred to a membrane and probed.

Assay [2] concerns LC3B. Description: Western blot of LC3B in exosomes extracted from MiaPaCa2 cells. The format is cell-based, human.
Experimental: U251, a human glioblastoma cell line, MiaPaCa2, a human pancreatic carcinoma cell line, and HEK293, a human embryonic kidney cell line. […] Cells were maintained in DMEM culture media supplemented with 10% fetal bovine serum (FBS), antimycotic, and L-glutamine. At 40% confluence, culture dishes were washed twice with PBS and media was replaced with 10% exosome depleted FBS (dFBS). DMEM media (50 ml EXO-FBS™ Exosome Depleted FBS media, System Biosciences) and incubated to settle for 24 h. After 24 h, culture dishes were washed with PBS and new dFBS DMEM media was added and treated with chloroquine diphosphate salt (Sigma Aldrich, UK) and incubated. […] Incubation varied according to plate confluency, CQ concentration, and expected number of exosomes secreted by the cell line. Media was collected and used for exosome extraction directly after incubation period concluded.
Detection of LC3B expression in isolated exosomes was completed using western blotting standard protocols. Briefly, gel electrophoresis was used to separate proteins by size and/or structure. Proteins were then transferred to a membrane (polyvinylidene fluoride or nitrocellulose are suitable for use) and blocked with blocking buffer to prevent non-specific antibody binding. Membranes were incubated with anti-LC3B antibody to target LC3B-I and LC3B-II. LI-COR detection (LI-COR Biotechnology, USA) was employed to visualize target proteins. […] CD9 was used as a loading control and was detected using rabbit monoclonal antibody (Cell Signaling Inc., USA). […]
In assay [3] the test system is LC3B. Description: Western blot of LC3B in exosomes extracted from patient plasma. The format is in vivo, human. The settings on record: patients, Gem/Carb regimen + CQ 100 mg/day.
Text: The study included 12 patients who were included within cohorts 1-3 of the approved phase I clinical trial (ClinicalTrials.gov Identifier NCT02071537). […] All subjects were consented before treatment and sample collection. All patients were heavily pretreated with anti-cancer therapeutics, with the exception of one patient who was enrolled to receive therapy with carboplatin/gemcitabine as part of the standard-of-care, in addition to the study CQ.
All 12 patients received Gem/Carb for from one to four cycles at standard doses, wherein the first three patients of cohort one received Gem 1200 mg/m2 and the remaining three patients of cohort one received 1200 mg/m^2 (Gem dose decreased in some patients due to heavy pretreatment, in order to avoid high toxicity profile). Carboplatin was received as area under the curve (AUC) 5 and dose modifications were permitted. […] The first 6 patients received 50 mg CQ daily. When well tolerated, the dose was increased by 50 mg increments to 100 mg/day (3 patients) and 150 mg/day (3 patients). All candidates began taking CQ orally 7 days prior to chemotherapy (day −7) and continued taking CQ daily throughout four cycles of Gem/Carb. […]
Detection of LC3B expression in isolated exosomes was completed using western blotting standard protocols. […] CD9 was used as a loading control and was detected using rabbit monoclonal antibody (Cell Signaling Inc., USA). […]

Molecules are shown by their SMILES. Entries after “also recorded” stand apart in the source; their conditions may differ.

With `CCN(CC)CCCC(C)Nc1ccnc2cc(Cl)ccc12` (stereo not drawn) [CQ, chloroquine], the apoptotic cells with HEK293 cells (10 μM CQ, 16 h) is 17%. In the assay with HEK293 cells (20 μM CQ compared with 10 μM CQ), the “distribution of cell population” value was “decreased both live and necrotic cells in favor of early apoptotic and apoptotic cells”. Further, in the assay on HEK293 cells (CQ at both concentrations (10 μM, 20 μM), control 10%), the “expression of phosphatidyl serine (apoptotic cells)” value was about 17%. Moreover, the “LC3B-II band in cells” value in the assay with LC3B [1] was “prominent in both CQ-treated and CQ-untreated samples”; in the assay on LC3B [1] (listed as chloroquine), “increase in LC3B-II band thickness”. Further, the “LC3B-I bands in exosomes” value in the assay on LC3B [1] (exosomes from cells treated with chloroquine) was “lacks LC3B-I bands”. The entries for the “LC3B-II band in exosomes” value in the assay on LC3B [1] and in the assay on LC3B [1] (listed as chloroquine) were “detected” and “clear LC3B-II band”, respectively. In addition, the “LC3B-II expression in exosomes” value with LC3B [2] (CQ 50 μM) is listed as “clear expression of LC3B-II”. In addition, the “LC3B expression in plasma extracted exosomes” value in the assay with LC3B [3] was “first detected at 6h, with peak detection on day 15”.

Turning to `Nc1ccn([C@@H]2O[C@H](CO)[C@@H](O)C2(F)F)c(=O)n1` [Gem, gemcitabine], in the assay with HEK293 cells (20 μM Gem, 16 h), the early apoptotic cells was 56.3% and the live cells is listed as 29.3%. In addition, the main cell population entry in the assay with HEK293 cells (Gem 20 μM) is “early apoptotic phase”. The apoptotic cells with HEK293 cells (Gem 20 μM alone, 16 h) is recorded as 8.2%. Further, the “LC3B band intensity in exosomes” value in the assay on LC3B [2] (Gemcitabine 20 μM alone) is “significantly less intense bands for both forms of LC3B; also recorded: comparatively less intense band”.
